The source of these data is paper PMC8286840, “Identifying SARS-CoV-2 antiviral compounds by screening for small molecule inhibitors of Nsp3 papain-like protease” (Biochemical Journal, 2021).

In test [1] the target is T1, SARS-CoV-2 PLpro (nsp3 1564–1878) (Severe acute respiratory syndrome coronavirus 2, UniProt P0DTD1). As to the kind of experiment: biochemical. The conditions noted are these: low concentration screen, read-out: % of control remaining. Also noted: FRET-quenched peptide (Pro3) cleavage by PLpro, 10 min pre-incubation, slope over 20 min, normalised to no-compound control.

For test [2], the target named is T1, SARS-CoV-2 PLpro (nsp3 1564–1878). As to the kind of experiment: biochemical. More on the design: FRET-quenched peptide (Pro3) cleavage by PLpro, 10 min pre-incubation, slope over 20 min, normalised to no-compound control. The conditions noted are these: high concentration screen, read-out: % of control remaining.

Where a name gives a salt, the structure may show the parent alone. Read-outs that look alike come from different tables or passages of the source.

As for `OC[C@H]1O[C@@H](n2cnc3c(NCCc4c[nH]c5ccccc45)ncnc32)[C@H](O)[C@@H]1O` [A2AR-agonist-1], the remaining activity at 1.25 µM in test [1] (Well no.=8653) was 105%. The remaining activity at 3.75 µM in test [2] (Well no.=8653) was determined as 105%.

Turning to `NC[C@@H]1O[C@H](C23CC4CC(CC(C4)C2)C3)Cc2c1ccc(O)c2O` [A-77636 hydrochloride], the remaining activity at 1.25 µM in test [1] (Well no.=212) was 102%. The remaining activity at 3.75 µM in test [2] (Well no.=212) stood at 99.3%.

In the case of `Cc1[nH]nc2ccc(-c3cncc(OC[C@@H](N)Cc4ccccc4)c3)cc12` [A-674563], in test [1] (Well no.=2991), the remaining activity at 1.25 µM is 97%. In addition, the remaining activity at 3.75 µM in test [2] (Well no.=2991) turned out to be 99.1%.

Turning to `COc1ccc(CC(=O)NC(N=C(NC#N)Nc2cccc3ncccc23)C(C)(C)C)cc1OC` (centres unmarked) [A-740003], in test [1] (Well no.=5421), the remaining activity at 1.25 µM came out at 92%. The remaining activity at 3.75 µM in test [2] (Well no.=5421) is 96.3%.

Turning to `COc1cc(NC(=O)c2ccc(-c3ccc(Cl)cc3)o2)cc(OC)c1` [A-803467], in test [1] (Well no.=5117), the remaining activity at 1.25 µM was determined as 105%. Moreover, the remaining activity at 3.75 µM in test [2] (Well no.=5117) worked out at 103%.

Consider `CCC(=O)c1cc(-c2ccc(Cl)cc2)n(-c2ccc(S(N)(=O)=O)cc2)c1C` [A-867744], for which the remaining activity at 1.25 µM in test [1] (Well no.=8320) is 96.8%. The remaining activity at 3.75 µM in test [2] (Well no.=8320) came out at 94%.

With `CN(C)CC#Cc1ccc(OCCCc2sc(N3CCc4cccc(C(=O)Nc5nc6ccccc6s5)c4C3)nc2C(=O)O)c(F)c1` [A-1155463], the remaining activity at 1.25 µM in test [1] (Well no.=6344) turned out to be 96.3%. Also, the remaining activity at 3.75 µM in test [2] (Well no.=6344) was 97.3%.

With `Cc1nn(C)c(COc2ccc(N3CCN(S(=O)(=O)N(C)C)CC3)cc2)c1-c1cccc2c(CCCOc3cccc4ccccc34)c(C(=O)O)n(CCN3CCOCC3)c12` [A-1210477], the remaining activity at 1.25 µM in test [1] (Well no.=6970) came to 99.5%. Besides, the remaining activity at 3.75 µM in test [2] (Well no.=6970) came out at 101%.

In the case of `Cc1c(-c2ccc(N3CCc4cccc(C(=O)Nc5nc6ccccc6s5)c4C3)nc2C(=O)O)cnn1CC12CC3CC(CC(C3)C1)C2` [A-1331852], the remaining activity at 1.25 µM in test [1] (Well no.=6592) is 102%. Further, in test [2] (Well no.=6592), the remaining activity at 3.75 µM was 93.5%.

On to `CC1=C(C)C(=O)C(CCCCC#CCCCC#CCO)=C(C)C1=O` [AA-861], for which the remaining activity at 1.25 µM in test [1] (Well no.=109) came out at 106%; in test [1] (Well no.=3941), 105%. Moreover, the values for the remaining activity at 3.75 µM in test [2] (Well no.=109) and in test [2] (Well no.=3941) were 103% and 102%, respectively.

Regarding `CCCCC/C=C\C/C=C\C/C=C\C/C=C\CCCC(=O)C(F)(F)F` [AACOCF3], in test [1] (Well no.=4486), the remaining activity at 1.25 µM turned out to be 102%. Also, in test [2] (Well no.=4486), the remaining activity at 3.75 µM came to 102%.

Consider `CNC(=O)[C@H]1O[C@@H](n2cnc3c(NCc4ccc(N)cc4)ncnc32)[C@H](O)[C@@H]1O` [AB-MECA], for which the remaining activity at 1.25 µM was 87.3% in test [1] (Well no.=306) and 95.8% in test [1] (Well no.=8699). Moreover, the remaining activity at 3.75 µM in test [2] (Well no.=306) was determined as 87.8%; in test [2] (Well no.=8699), 98.3%.

Turning to `C[C@@H]1CCCN1CCc1cc2cc(-c3ccc(C#N)cc3)ccc2o1` [ABT-239], the remaining activity at 1.25 µM in test [1] (Well no.=8049) is 103%. Also, the remaining activity at 3.75 µM in test [2] (Well no.=8049) worked out at 101%.

As to `Cc1cc([C@@H]2CCCN2C)on1` [ABT-418], the remaining activity at 1.25 µM in test [1] (Well no.=307) came to 97.8%. For the same molecule, the remaining activity at 3.75 µM in test [2] (Well no.=307) was 99.2%.

Take `O=C(c1cc(S(=O)(=O)Nc2ccccc2F)c(F)cc1Cl)N1CCN2CCC[C@@H]2C1` [ABT-639]: in test [1] (Well no.=7880), the remaining activity at 1.25 µM is 94.2%. In addition, the remaining activity at 3.75 µM in test [2] (Well no.=7880) is 95.4%.

For `CN(C)CC[C@H](CSc1ccccc1)Nc1ccc(S(=O)(=O)NC(=O)c2ccc(N3CCN(Cc4ccccc4-c4ccc(Cl)cc4)CC3)cc2)cc1[N+](=O)[O-]` [ABT-737], the figures for the remaining activity at 1.25 µM in test [1] (Well no.=2692), in test [1] (Well no.=6348) and in test [1] (Well no.=8314) were 102%, 99.7% and 98.5%, respectively. Besides, the remaining activity at 3.75 µM in test [2] (Well no.=2692) is 101%; in test [2] (Well no.=6348) it was 96.5%; in test [2] (Well no.=8314) it was 97.8%.

On to `COc1ccc(S(=O)(=O)Nc2cccnc2Nc2ccc(O)cc2)cc1` [ABT-751], for which the remaining activity at 1.25 µM in test [1] (Well no.=5226) is 91.8%. In test [2] (Well no.=5226), the remaining activity at 3.75 µM was 92.1%.

Take `Cc1ccc(F)c(NC(=O)Nc2ccc(-c3cccc4[nH]nc(N)c34)cc2)c1` [ABT-869]: in test [1] (Well no.=2740), the remaining activity at 1.25 µM was 94.6%. Also, the remaining activity at 3.75 µM in test [2] (Well no.=2740) was 93.3%.

Consider `C[C@]1(c2nc3c(C(N)=O)cccc3[nH]2)CCCN1` [ABT-888 (Veliparib)], for which, in test [1] (Well no.=5222), the remaining activity at 1.25 µM was 95.8%. Besides, the remaining activity at 3.75 µM in test [2] (Well no.=5222) stood at 94.2%.

Regarding `O=C(Cc1ccc(Cl)c(Cl)c1)OCCN1CCCC1` [AC 915 oxalate], the remaining activity at 1.25 µM in test [1] (Well no.=61) was determined as 104%. Besides, the remaining activity at 3.75 µM in test [2] (Well no.=61) came to 102%.

Turning to `C/C(=N\NC(=O)C(NC(=O)c1ccccc1)c1n[nH]c(=O)c2ccccc12)c1cccc(Br)c1` (centres unmarked) [AC-55541], the remaining activity at 1.25 µM in test [1] (Well no.=6997) stood at 106%. Moreover, the remaining activity at 3.75 µM in test [2] (Well no.=6997) stood at 106%.

`COc1ccc(S(=O)(=O)N2CCC[C@H]2C(=O)Nc2cc(C)cc(C)c2)cc1` [ACT-462206]: the remaining activity at 1.25 µM in test [1] (Well no.=6052) was 95.5%. For the same molecule, in test [2] (Well no.=6052), the remaining activity at 3.75 µM is 90.9%.

In the case of `CCN(CC)C(=O)c1ccc(C2=CC3(CCNCC3)Oc3cccc(O)c32)cc1` [ADL5859 HCl], the remaining activity at 1.25 µM in test [1] (Well no.=5051) came to 101%. Besides, the remaining activity at 3.75 µM in test [2] (Well no.=5051) was determined as 98.3%.

Regarding `CCN(CC)C(=O)c1ccc(C2=CC3(CCNCC3)Oc3cccc(O)c32)cc1` [ADL-5859], the remaining activity at 1.25 µM in test [1] (Well no.=8013) is 92.2%. The remaining activity at 3.75 µM in test [2] (Well no.=8013) came to 85.8%.

As to `CCN1CCN(Cc2ccc(-c3cc4c(N[C@H](C)c5ccccc5)ncnc4[nH]3)cc2)CC1` [AEE788 (NVP-AEE788)], the remaining activity at 1.25 µM in test [1] (Well no.=5247) turned out to be 102%. Besides, the remaining activity at 3.75 µM in test [2] (Well no.=5247) was determined as 102%.

In the case of `CN(C)Cc1ccc(-c2nc3cccc4c3n2CCNC4=O)cc1` [AG14361], the remaining activity at 1.25 µM in test [1] (Well no.=5272) came to 98.1%. The remaining activity at 3.75 µM in test [2] (Well no.=5272) was 97.3%.

`N#CC(C#N)=C(N)/C(C#N)=C/c1ccc(O)cc1` [AG 112]: in test [1] (Well no.=2609), the remaining activity at 1.25 µM came out at 97%. The remaining activity at 3.75 µM in test [2] (Well no.=2609) stood at 91.5%.

In the case of `N#C/C(=C\c1ccc(O)c(O)c1)C(=O)NCc1ccccc1` [AG 490 - (E)-2-Cyano-3-(3,4-dihydrophenyl)-N-(phenylmethyl)-2-propenamide], the remaining activity at 1.25 µM in test [1] (Well no.=2332) was 95%. In test [2] (Well no.=2332), the remaining activity at 3.75 µM was determined as 93.5%.

Take `N#C/C(=C\c1ccc(O)c(O)c1)C(=O)NCc1ccccc1` [AG 490]: the remaining activity at 1.25 µM in test [1] (Well no.=2607) was 95.5%. In addition, the remaining activity at 3.75 µM in test [2] (Well no.=2607) worked out at 97%.

As to `CC(C)(C)c1cc(C=C(C#N)C#N)cc(Br)c1O` [AG 1024], the remaining activity at 1.25 µM in test [1] (Well no.=2307) amounted to 104%. The remaining activity at 3.75 µM in test [2] (Well no.=2307) came out at 104%.
